Data: US12564609B2, “Hematopoietic stem cell engraftment with a combination of agents” (The Board of Trustees of the Leland Stanford Junior …, priority 2020, dated 2026)

Legend:
[1] = system: Lin−Sca1+c-Kit+ cells (LSK); assay: Annexin V/PI staining of HSPC fractions after AZA in vivo; set-up: species or system mice; conditions: AZA 1.25, 2.5 and 5 mg/kg/d for 3 days
Protocol: Analysis was performed 24 h after last AZA administration. Gated from LSK. (B) Annexin V+(left) and AnnexinV/PI+(right) cells shown as % from LSK in the three different dose groups as compared to untreated controls. Data were pooled from 2 independent experiments and represent mean±SD (n=4 in the control group and n=7 in the AZA groups). Statistics were calculated Mann-Whitney test (*P<0.05; **P<0.01).
In vivo direct killing by apoptosis was confirmed by flow cytometry using Annexin V/PI to stain the HSPC fractions.

[2] = system: human Lin−CD34+CD38− cells; assay: In vitro HSC culture, cell counting and live/dead viability assay (human); assay type: cell-based
Protocol: A. Schematic of treatment protocol. C57BL/6 mice were injected with three different doses of AZA (1.25, 2.5 and 5 mg/kg/d) for 3 days. 24 h after last AZA injection BM was analyzed for HSC-depletion and Ki67 intracellular protein expression. B. Overlay histogram of Ki67 intracellular protein expression in LT-HSC (gated from live, Lin^−Sca1^+c-Kit^+CD150^+CD48^− cells) in mice treated with AZA 1.25 mg/kg, 2.5 mg/kg and 5 mg/kg/d for 3 consecutive days. C. Mean fluorescence intensity (MFI) of Ki67 intracellular protein expression in LT-HSC, ST-HSC, MPP2, MPP3/4 and myeloid progenitors (MP). Data were pooled from 2 independent experiments and represent mean±SD (n=7). Statistics were calculated Mann-Whitney test (*P<0.05; **P<0.01; ***P<0.001). […] After 48 h % live/dead cells was assessed by using EarlyTox Live/Dead Assay Kit. E. Proliferation curves of FACS-sorted mouse Lin^−Sca1^+c-Kit^+CD48^− in the presence of indicated concentrations of AZA (left) and cell viability as assessed by % of Calcein AM positive cells after 48 h of cell culture (right). […] Statistics were calculated with Mann-Whitney test (*P<0.05; **P<0.01; ***P<0.001). F. Proliferation curves of FACS-sorted human Lin^−CD34^+CD38^− cells in the presence of indicated concentrations of AZA (left) and cell viability as assessed by % of Calcein AM positive cells after 48 h of cell culture (right). […]

donor HSC engraftment = assay: Congenic hematopoietic cell transplantation, donor chimerism in peripheral blood; assay type: in vivo, B6 mice
Excerpt: Mice. C57BL/6 (B6) mice (H-2^b, Thy1.1, CD45.1/CD45.2) were recipients and B6 mice (H-2^b, Thy1.1, CD45.1) were donors for the congenic transplant experiments. BALB.B (H-2^b, Thy1.2, CD45.2) mice were used as recipients and B6 mice (H-2^b, Thy1.1, CD45.1) as donors for […] (allogeneic) transplant experiments. Recipients were >8 weeks old and donors were 8-12 weeks old at timepoint of transplantation. B6 (H-2^b, Thy1.1, CD45.2) mice were used for in vivo depletion studies. Mice were bred and maintained under pathogen free conditions at the Stanford University Research Animal Facility. All experiments were performed under a protocol approved by the Stanford Administrative Panel on Laboratory Animal Care.
In vivo administration of therapeutic agents and cytokines. Anti-mouse CD117 mAbs, clone ACK2 (BioXcell) and 2B8 (BioXcell), were injected retroorbital as a single dose of 500 μg following intraperitoneal administration of Diphenhydramine (Benadryl). Anti CD4 (clone GK1.5, BioXcell) and anti-CD8 (clone YTS169.4, BioXcell) were administered intraperitoneally at a dose of 100 μg in 100 μl phosphate-buffered saline (PBS). […] Before each injection, AZA was thawed for 10-15 min at room temperature (RT), resuspended in PBS and administered intraperitoneally in 100 μl. […]

Nc1ncn([C@@H]2O[C@H](CO)[C@@H](O)[C@H]2O)c(=O)n1 [AZA, 5-Azacytidine]
apoptosis and apoptotic cell death in the HSPC compartment [1]: dose dependent | number of cells in culture ([2]; AZA 0.1, 0.5 and 1 μg/ml at baseline and 24 h, 48 h culture with SCF and TPO): reduced the number of cells in a dose dependent manner | cell viability by Calcein AM ([2]; AZA concentrations 0.1 μg/ml, 48 h): significant decrease in cell viability | stable engraftment of donor WBM (donor HSC engraftment; AZA 2.5 mg/kg for 5 days, 20×10^6 congenic WBM cells): does not enable stable engraftment | myeloid donor chimerism (donor HSC engraftment; single agent AZA 5 mg/kg for 5 days, congenic WBM cells): 10-15%
